Experimental data reported in patent US9181234B2, “Antibacterial compounds” (priority 2010, dated 2015).
Converted amounts (≈) assume the structure as drawn.

Legend:
physchem = conditions: kinetic from dmso stock
Outline: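 DMSO doubling dilutions were diluted twenty-fold into 100 mM citrate (pH 4), PBS (pH 7.4) or carbonate-bicarbonate (pH 9). After 24 h equilibration at room temperature, absorbance was read at 620 nm. The reported value is the highest concentration without measurable precipitate.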

[1] = test system: Staphylococcus aureus (Isolate ID ATCC 29213); test: Antibacterial activity, MIC, S. aureus; format: cell-based; conditions: Staphylococcus aureus, ATCC29213, Gram positive strain; broth microdilution or agar dilution
Outline: (§1)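 CLSI-guided dilution susceptibility testing (broth or agar) gave the MIC for each strain.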

[2] = test system: Enterococcus faecalis (Isolate ID ATCC 29212); test: Antibacterial activity, MIC, E. faecalis; format: cell-based; conditions: Enterococcus faecalis, ATCC29212; Gram positive strain; broth microdilution or agar dilution
Outline: as §1

[3] = test system: Streptococcus pyogenes (Isolate ID ATCC 51339); test: Antibacterial activity, MIC, S. pyogenes; format: cell-based; conditions: Streptococcus pyogenes, ATCC51339, Gram positive strain; broth microdilution or agar dilution
Outline: as §1

[4] = test system: Haemophilus influenzae (Isolate ID ATCC 49247); test: Antibacterial activity, MIC, H. influenzae; format: cell-based; conditions: Haemophilus influenzae, ATCC49247; Gram negative strain; broth microdilution or agar dilution
Outline: as §1

[5] = pH 7.4, aqueous buffer, Max Solubility
[6] = pH 7.4, aqueous buffer, Solubility (pH 7.4)
[7] = pH 7.4, aqueous buffer, Solubility Range
[8] = pH 7.4, aqueous buffer, Solubility Range (maximum solubility)
[9] = pH 9, aqueous buffer, Max Solubility
[10] = pH 9, aqueous buffer, Solubility Range (maximum solubility)

Row | solubility at 24 h (physchem; [5]) | solubility at 24 h (physchem; [6]) | solubility at 24 h (physchem; [7]) | solubility at 24 h (physchem; [8]) | MIC [1] | MIC [2] | MIC [3] | MIC [4] | solubility at 24 h (physchem; [9]) | solubility at 24 h (physchem; [10]) | solubility at 24 h (physchem; pH 4, aqueous buffer, Max Solubility) | solubility at 24 h (physchem; pH 4, aqueous buffer, Solubility Range (maximum solubility)) | SMILES
1 | ≥ 800 µg/mL | ≥ 800 µg/mL | > 800 µg/mL | > 800 µg/mL | ≤ 0.25 µg/mL | ≤ 0.25 µg/mL | ≤ 0.25 µg/mL | 1 to 16 µg/mL (≈ 1.81 to 28.9 µM) | – | – | – | – | CCNC(=O)Nc1nc2cc(-c3cnc(N4CCC(C)(C(=O)O)CC4)nc3)cc(-c3ncc(F)cc3F)c2s1 [Compound 54]
2 | – | 400 µg/mL (≈ 707 µM) | 400 to 800 µg/mL (≈ 707 to 1410 µM) | – | ≤ 0.25 µg/mL | ≤ 0.25 µg/mL | ≤ 0.25 µg/mL | 0.25 to 1 µg/mL (≈ 0.442 to 1.77 µM) | ≥ 800 µg/mL | > 800 µg/mL | – | – | CCNC(=O)Nc1nc2cc(-c3cnc(N4CCC(C)(C(=O)O)CC4)nc3)cc(-c3nccc(OC)c3F)c2s1 [Compound 55]
3 | ≥ 800 µg/mL | ≥ 800 µg/mL | > 800 µg/mL | > 800 µg/mL | ≤ 0.25 µg/mL | ≤ 0.25 µg/mL | ≤ 0.25 µg/mL | 0.25 to 1 µg/mL (≈ 0.456 to 1.82 µM) | – | – | – | – | CCNC(=O)Nc1nc2cc(-c3cnc(N4CCC(C)(C(=O)O)CC4)nc3)cc(-c3cnc(OC)cn3)c2s1 [Compound 56]
4 | – | 200 µg/mL (≈ 347 µM) | 12.5 to 400 µg/mL (≈ 21.7 to 694 µM) | – | 1 to 16 µg/mL (≈ 1.73 to 27.7 µM) | 0.25 to 1 µg/mL (≈ 0.434 to 1.73 µM) | 0.25 to 1 µg/mL (≈ 0.434 to 1.73 µM) | 1 to 16 µg/mL (≈ 1.73 to 27.7 µM) | 400 µg/mL (≈ 694 µM) | 400 to 800 µg/mL (≈ 694 to 1390 µM) | – | – | CCNC(=O)Nc1nc2cc(-c3cnc(N4CCC(C)(C(=O)O)CC4)nc3)cc(-c3cc(=O)n(C(C)C)cn3)c2s1 [Compound 57]
5 | – | 25 µg/mL (≈ 44.9 µM) | 12.5 to 400 µg/mL (≈ 22.5 to 719 µM) | – | ≤ 0.25 µg/mL | ≤ 0.25 µg/mL | ≤ 0.25 µg/mL | 1 to 16 µg/mL (≈ 1.8 to 28.7 µM) | 50 µg/mL (≈ 89.8 µM) | 12.5 to 400 µg/mL (≈ 22.5 to 719 µM) | – | – | CCNC(=O)Nc1nc2cc(-c3cnc(N4CCC(C)(C(=O)O)CC4)nc3)cc(-c3ccc(C#N)c(C)n3)c2s1 [Compound 58]
6 | ≥ 800 µg/mL | ≥ 800 µg/mL | > 800 µg/mL | > 800 µg/mL | ≤ 0.25 µg/mL | ≤ 0.25 µg/mL | ≤ 0.25 µg/mL | ≤ 0.25 µg/mL | – | – | – | – | CCNC(=O)Nc1nc2cc(-c3cnc(N4CCC(C)(C(=O)O)CC4)nc3)cc(-c3ncc(C)cn3)c2s1 [Compound 59]
7 | – | 12.5 µg/mL (≈ 22.9 µM) | 12.5 to 400 µg/mL (≈ 22.9 to 732 µM) | – | ≤ 0.25 µg/mL | ≤ 0.25 µg/mL | ≤ 0.25 µg/mL | 0.25 to 1 µg/mL (≈ 0.457 to 1.83 µM) | 400 µg/mL (≈ 732 µM) | 400 to 800 µg/mL (≈ 732 to 1460 µM) | – | – | CCNC(=O)Nc1nc2cc(-c3cnc(N4CCC(C)(C(=O)O)CC4)nc3)cc(-c3ncc(CC)cn3)c2s1 [Compound 60]
8 | ≥ 800 µg/mL | ≥ 800 µg/mL | > 800 µg/mL | > 800 µg/mL | ≤ 0.25 µg/mL | ≤ 0.25 µg/mL | ≤ 0.25 µg/mL | 1 to 16 µg/mL (≈ 1.83 to 29.2 µM) | – | – | – | – | CCNC(=O)Nc1nc2cc(-c3cnc(N4CCC(C)(C(=O)O)CC4)nc3)cc(-c3ncccc3OC)c2s1 [Compound 61]
9 | ≥ 800 µg/mL | ≥ 800 µg/mL | > 800 µg/mL | > 800 µg/mL | 0.25 to 1 µg/mL (≈ 0.444 to 1.78 µM) | ≤ 0.25 µg/mL | 0.25 to 1 µg/mL (≈ 0.444 to 1.78 µM) | 1 to 16 µg/mL (≈ 1.78 to 28.4 µM) | – | – | – | – | CCNC(=O)Nc1nc2cc(-c3cnc(N4CCC(C)(C(=O)O)CC4)nc3)cc(-c3nc(OC)ccc3N)c2s1 [Compound 62]
10 | – | 400 µg/mL (≈ 714 µM) | 400 to 800 µg/mL (≈ 714 to 1430 µM) | – | ≤ 0.25 µg/mL | ≤ 0.25 µg/mL | ≤ 0.25 µg/mL | 1 to 16 µg/mL (≈ 1.78 to 28.5 µM) | ≥ 800 µg/mL | > 800 µg/mL | – | – | CCNC(=O)Nc1nc2cc(-c3cnc(N4CCC(C)(C(=O)O)CC4)nc3)cc(-c3ncc(C#N)cc3F)c2s1 [Compound 63]
11 | ≥ 800 µg/mL | ≥ 800 µg/mL | > 800 µg/mL | > 800 µg/mL | ≤ 0.25 µg/mL | ≤ 0.25 µg/mL | ≤ 0.25 µg/mL | 1 to 16 µg/mL (≈ 1.78 to 28.5 µM) | – | – | – | – | CCNC(=O)Nc1nc2cc(-c3cnc(N4CCC(C)(C(=O)O)CC4)nc3)cc(-c3nc(C)ccc3OC)c2s1 [Compound 64]
12 | 12.5 µg/mL (≈ 22.5 µM) | 12.5 µg/mL (≈ 22.5 µM) | 12.5 to 400 µg/mL (≈ 22.5 to 719 µM) | 12.5 to 400 µg/mL (≈ 22.5 to 719 µM) | ≤ 0.25 µg/mL | ≤ 0.25 µg/mL | ≤ 0.25 µg/mL | 1 to 16 µg/mL (≈ 1.8 to 28.7 µM) | – | – | – | – | CCNC(=O)Nc1nc2cc(-c3cnc(N4CCC(C)(C(=O)O)CC4)nc3)cc(-c3ncc(C)cc3C#N)c2s1 [Compound 65]
13 | ≥ 800 µg/mL | ≥ 800 µg/mL | > 800 µg/mL | > 800 µg/mL | ≤ 0.25 µg/mL | ≤ 0.25 µg/mL | ≤ 0.25 µg/mL | 0.25 to 1 µg/mL (≈ 0.469 to 1.88 µM) | – | – | – | – | CCNC(=O)Nc1nc2cc(-c3cnc(N4CCC(C)(C(=O)O)CC4)nc3)cc(-c3cnc(C)cn3)c2s1 [Compound 66]
14 | ≥ 800 µg/mL | ≥ 800 µg/mL | > 800 µg/mL | > 800 µg/mL | ≤ 0.25 µg/mL | ≤ 0.25 µg/mL | ≤ 0.25 µg/mL | 1 to 16 µg/mL (≈ 1.93 to 30.9 µM) | – | – | – | – | CCNC(=O)Nc1nc2cc(-c3cnc(N4CCC(C)(C(=O)O)CC4)nc3)cc(-c3ccncn3)c2s1 [Compound 67]
15 | ≥ 800 µg/mL | ≥ 800 µg/mL | > 800 µg/mL | > 800 µg/mL | ≤ 0.25 µg/mL | ≤ 0.25 µg/mL | ≤ 0.25 µg/mL | 0.25 to 1 µg/mL (≈ 0.445 to 1.78 µM) | – | – | – | – | CCNC(=O)Nc1nc2cc(-c3cnc(N4CCC(C)(C(=O)O)CC4)nc3)cc(-c3cc(OCC)ccn3)c2s1 [Compound 68]
16 | ≥ 800 µg/mL | ≥ 800 µg/mL | > 800 µg/mL | > 800 µg/mL | 1 to 16 µg/mL (≈ 1.8 to 28.7 µM) | ≤ 0.25 µg/mL | 0.25 to 1 µg/mL (≈ 0.449 to 1.8 µM) | 1 to 16 µg/mL (≈ 1.8 to 28.7 µM) | – | – | – | – | CCNC(=O)Nc1nc2cc(-c3cnc(N4CCC(C)(C(=O)O)CC4)nc3)cc(-c3ncc(C#N)cc3C)c2s1 [Compound 69]
17 | ≥ 800 µg/mL | ≥ 800 µg/mL | > 800 µg/mL | > 800 µg/mL | ≤ 0.25 µg/mL | ≤ 0.25 µg/mL | ≤ 0.25 µg/mL | 1 to 16 µg/mL (≈ 1.79 to 28.7 µM) | – | – | – | – | CCNC(=O)Nc1nc2cc(-c3cnc(N4CCC(C)(C(=O)O)CC4)nc3)cc(-c3nccc4occc34)c2s1 [Compound 70]
18 | – | 6.25 µg/mL (≈ 10.7 µM) | < 12.5 µg/mL | – | 0.25 to 1 µg/mL (≈ 0.427 to 1.71 µM) | ≤ 0.25 µg/mL | ≤ 0.25 µg/mL | 0.25 to 1 µg/mL (≈ 0.427 to 1.71 µM) | – | – | 50 µg/mL (≈ 85.4 µM) | 12.5 to 400 µg/mL (≈ 21.3 to 683 µM) | CCNC(=O)Nc1nc2cc(-c3cnc(N4CCC(C)(C(=O)O)CC4)nc3)cc(-c3nccc(N(C)C)c3C#N)c2s1 [Compound 71]
19 | ≥ 800 µg/mL | ≥ 800 µg/mL | > 800 µg/mL | > 800 µg/mL | ≤ 0.25 µg/mL | ≤ 0.25 µg/mL | ≤ 0.25 µg/mL | 0.25 to 1 µg/mL (≈ 0.502 to 2.01 µM) | – | – | – | – | CCNC(=O)Nc1nc2cc(-c3cnc(N4CCC(C)(C(=O)O)CC4)nc3)cc(/C=N/OC)c2s1 [Compound 72, (E)-1-(5-(2-(3-ethylureido)-7-((methoxyimino)methyl)benzo[d]thiazol-5-yl)pyrimidin-2-yl)-4-methylpiperidine-4-carboxylic acid]
20 | – | 400 µg/mL (≈ 677 µM) | 400 to 800 µg/mL (≈ 677 to 1350 µM) | – | 0.25 to 1 µg/mL (≈ 0.423 to 1.69 µM) | ≤ 0.25 µg/mL | 1 to 16 µg/mL (≈ 1.69 to 27.1 µM) | > 16 µg/mL | ≥ 800 µg/mL | > 800 µg/mL | – | – | CCNC(=O)Nc1nc2cc(-c3cnc(N4CCC(C)(C(=O)O)CC4)nc3)cc(-c3cncc(OC(C)(C)C)n3)c2s1 [Compound 73]
